In article PMC9797021 (ACS applied bio materials, 2022):

Experiments:
[1] = system: SARS-CoV-2 spike protein, S1 subunit; assay type: binding; conditions: pH 7.4
SARS-CoV-2 RBD = conditions: cited from earlier work

| Substance | SPR angle shift of ACE2/spike protein binding [1] | affinity compared with full-length ACE2 binding to RBD (SARS-CoV-2 RBD) |
| --- | --- | --- |
| ACE2 | 0.147±0.009 degrees |  |
| residues 21–43 of the human ACE2 α 1-helix |  | comparable to that of the full-length ACE2 binding to RBD |
